Read-outs that look alike come from different tables or passages of the source.
System: primary human total T-cells
Assay: T-cell activation assessed by cytokine secretion (GM-CSF, IFNγ, TNFα)
Assay type: cell-based
Excerpt: Peripheral blood mononuclear cells (PBMC) were obtained either: 1) by using Ficoll-Paque™ (GE Healthcare) for separation of peripheral blood hematopoietic cells from buffy coats of healthy human donors; or 2) directly from FeukoPak donations. Total human primary T-cells were isolated from the PMBCs utilizing negative selection with commercial kits following the manufacturer's protocol (Miltenyi Catalog #130-096-535 (i.e., cocktail of antibodies against surface markers CD14, CD15, CD16, CD19, CD34, CD36, CD56, CD123 and CD235a are incubated with the PBMCs before passing the samples by magnetic beads for removal of cells expressing those surface markers) or StemCells Catalog #17951) to yield >95% CD3+ cells as assessed by flow cytometry. For measurement of cell proliferation, cells were labeled with Cell Trace Violet (Invitrogen) following manufacturer's protocol prior to activation by stimulation with anti-CD3 antibody alone or in combination with anti-CD28 antibody. The Cbl-b inhibitor was added to 1×10^5 cells per well at multiple concentrations (e.g., 10 μM, 1.11 μM, or 0.123 μM) with a final DMSO concentration of <0.1%. The plate was incubated for one hour at 37° C. in 5% CO2. Following incubation with the Cbl-b inhibitor, primary human total T-cells were stimulated with either plate bound anti-CD3 antibody (OKT3) alone or plate bound anti-CD3 antibody (OKT3) with soluble anti-CD28 antibody (28.2) (Life Technologies). To prepare plates with plate bound anti-CD3 antibody (OKT3), 96-well round bottom tissue culture plates were coated with 100 μl of anti-CD3 antibody (OKT3) at 10 μg/mL for 4 hours at 37° C. 5% CO2 in phosphate buffered saline (PBS). The plates were washed with PBS prior to adding the cells with or without soluble anti-CD28 antibody (28.2) to each well at a final concentration of 5 μg/mL. Cells were stimulated for 48 hours prior to harvesting the cell free supernatant and staining the cell population for surface marker assessment by flow cytometry. Supernatants were analyzed for cytokine secretion (e.g., GM-CSF, IFNγ and TNFα) by ELISA (R&D Systems, Peprotech or Life Technologies) or Luminex multiplex kits (Procarta Life Technologies) following manufacturer's protocol. Cells were stained with anti-CD69 (BD Biosciences) to assess levels of surface markers of activation. Proliferation was measured by flow cytometry and data was analyzed with FlowJo v7.6.5 or v10. Readouts were reported as fold change over baseline. In some embodiments, baseline was the measurement obtained from total human T-cells stimulated with anti-CD3 antibody alone, wherein the cells were not incubated with a Cbl-b inhibitor. In some embodiments, baseline was the measurement obtained from total human T-cells stimulated with anti-CD3 antibody and anti-CD28 antibody, where the cells were not incubated with a Cbl-b inhibitor.
Cbl-b inhibitors were tested to determine their ability to induce or enhance secretion of cytokines from T-cells (e.g., GM-CSF, IFNγ and TNFα) and/or surface expression of cell surface markers on T-cells (e.g., CD69) that is indicative of T-cell activation. Cbl-b inhibitors were also tested to determine their ability to induce or enhance T-cell proliferation. Cbl-b inhibitors were tested for their effects on T-cell activation in the presence of costimulation and where conditions were suboptimal for priming.
Readouts for T-cell activation were reported as fold change over baseline. Baseline for this study was the measurement obtained from total human T-cells stimulated with anti-CD3 antibody alone or anti-CD3 antibody in combination with soluble anti-CD28 antibody, where the cells were not incubated with a Cbl-b inhibitor. For T-cells stimulated with anti-CD3/anti-CD28 or with anti-CD3 alone changes greater than 1,2-fold over baseline for % positive CD69 staining and greater than 2-fold over baseline for % total proliferating cells were considered a significant and positive response (Table 4a). […]

[1] = CD3/CD28 stimulation, read-out: GM-CSF secretion
[2] = CD3/CD28 stimulation, read-out: IFNγ secretion
[3] = CD3/CD28 stimulation, read-out: TNFα secretion
[4] = CD3 alone stimulation, read-out: GM-CSF secretion
[5] = CD3 alone stimulation, read-out: IFNγ secretion
[6] = CD3 alone stimulation, read-out: TNFα secretion

Row | Compound | fold induction at 1.11 µM [1] | fold induction at 1.11 µM [2] | fold induction at 1.11 µM [3] | fold induction at 10 µM [1] | fold induction at 10 µM [2] | fold induction at 10 µM [3] | fold induction at 1.11 µM [4] | fold induction at 1.11 µM [5] | fold induction at 1.11 µM [6] | fold induction at 10 µM [4] | fold induction at 10 µM [5] | fold induction at 10 µM [6]
1 | C[C@@H](c1cc2c(c(C(F)(F)F)c1)CN(c1cccc(C3(Cc4nncn4C)COC3)c1)C2=O)N1CC[C@H](F)C1 [Compound 412, 6-((S)-1-((S)-3-fluoropyrrolidin-1-yl)ethyl)-2-(3-(3-((4-methyl-4H-1,2,4-triazol-3-yl)methyl)oxetan-3-yl)phenyl)-4-(trifluoromethyl)isoindolin-1-one] | > 4 | > 4 | 2.01 to 4 | > 4 | > 4 | > 4 | > 4 | 3.01 to 4 | 1.51 to 2 | > 4 | > 4 | 2.01 to 4
2 | Cn1cnnc1CC1(c2cccc(N3Cc4c(cc(CN5CCC6(CC6)C5)cc4C(F)(F)F)C3=O)c2)COC1 [Compound 520, 6-((5-azaspiro[2.4]heptan-5-yl)methyl)-2-(3-(3-((4-methyl-4H-1,2,4-triazol-3-yl)methyl)oxetan-3-yl)phenyl)-4-(trifluoromethyl)isoindolin-1-one] | > 4 | > 4 | 2.01 to 4 | > 4 | > 4 | > 4 | 2.01 to 4 | > 4 | 2.01 to 4 | > 4 | > 4 | 2.01 to 4

Reference: patent US20220324835A1 (Nurix Therapeutics, Inc., priority 2018, published 2022)
